Like-named read-outs stand apart in the source and are kept apart here. Blank lines part the entries; values can stand above or below the molecule they belong to.
What was measured:
Assay in all cases: biochemical
Set-up in all cases: species or system human cell line lysate
[1] = biological target: Aurora kinase A ; AURKA ; O14965 (Homo sapiens, UniProt O14965)
[2] = biological target: Casein kinase II subunit alpha' ; CSNK2A2 ; P19784 (Homo sapiens, UniProt P19784)
[3] = biological target: DNA-dependent protein kinase catalytic subunit ; PRKDC ; P78527 (Homo sapiens, UniProt P78527)
[4] = biological target: Deoxycytidine kinase ; DCK ; P27707 (Homo sapiens, UniProt P27707)
[5] = biological target: T1, Dual specificity mitogen-activated protein kinase kinase 3 ; MAP2K3 ; P46734 (Homo sapiens, UniProt P46734)
T1 sequence (P46734 1-347): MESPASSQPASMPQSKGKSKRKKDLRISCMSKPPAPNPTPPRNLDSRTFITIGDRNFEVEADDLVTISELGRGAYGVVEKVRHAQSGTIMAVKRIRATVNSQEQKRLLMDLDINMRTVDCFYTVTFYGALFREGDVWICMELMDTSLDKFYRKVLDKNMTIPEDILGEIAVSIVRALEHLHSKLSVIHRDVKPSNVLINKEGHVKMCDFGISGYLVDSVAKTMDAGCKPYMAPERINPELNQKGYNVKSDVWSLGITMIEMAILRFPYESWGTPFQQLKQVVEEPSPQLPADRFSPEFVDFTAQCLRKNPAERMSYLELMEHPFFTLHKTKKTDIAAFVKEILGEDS

[6] = biological target: EKC/KEOPS complex subunit TP53RK ; TP53RK ; Q96S44 (Homo sapiens, UniProt Q96S44)
[7] = biological target: Isoform 2 of Mitogen-activated protein kinase kinase kinase 20 ; MAP3K20 ; Q9NYL2-2 (Homo sapiens, UniProt Q9NYL2)
[8] = biological target: Isoform 2 of Ribosomal protein S6 kinase alpha-1 ; RPS6KA1 ; Q15418-2 (Homo sapiens, UniProt Q15418)
[9] = biological target: Isoform 2 of Tyrosine-protein kinase Lyn ; LYN ; P07948-2 (Homo sapiens, UniProt P07948)
[10] = biological target: Misshapen-like kinase 1 ; MINK1 ; Q8N4C8 (Homo sapiens, UniProt Q8N4C8)
[11] = biological target: Mitogen-activated protein kinase kinase kinase 2 ; MAP3K2 ; Q9Y2U5 (Homo sapiens, UniProt Q9Y2U5)
[12] = biological target: Phosphoinositide 3-kinase regulatory subunit 4 ; PIK3R4 ; Q99570 (Homo sapiens, UniProt Q99570)
[13] = biological target: RAC-alpha serine/threonine-protein kinase ; AKT1 ; P31749 (Homo sapiens, UniProt P31749)
[14] = biological target: Receptor-type tyrosine-protein kinase FLT3 ; FLT3 ; P36888 (Homo sapiens, UniProt P36888)
[15] = biological target: Serine/threonine-protein kinase ATR ; ATR ; Q13535 (Homo sapiens, UniProt Q13535)
[16] = biological target: Serine/threonine-protein kinase MARK2 ; MARK2 ; Q7KZI7 (Homo sapiens, UniProt Q7KZI7)
[17] = biological target: Serine/threonine-protein kinase PLK1 ; PLK1 ; P53350 (Homo sapiens, UniProt P53350)
[18] = biological target: Serine/threonine-protein kinase Sgk3 ; SGK3 ; Q96BR1 (Homo sapiens, UniProt Q96BR1)
[19] = biological target: Serine/threonine-protein kinase ULK3 ; ULK3 ; Q6PHR2 (Homo sapiens, UniProt Q6PHR2)
[20] = biological target: Serine/threonine-protein kinase/endoribonuclease IRE1 ; ERN1 ; O75460 (Homo sapiens, UniProt O75460)
[21] = biological target: Tyrosine-protein kinase JAK1 ; JAK1 ; P23458 (Homo sapiens, UniProt P23458)
[22] = read-out: BAY-1251152 (10 µM) / %Intensity relative to DMSO
[23] = read-out: BAY-1143572 (10 µM) / %Intensity relative to DMSO

Misshapen-like kinase 1 ; MINK1 ; Q8N4C8, sequence (Q8N4C8 whole entry): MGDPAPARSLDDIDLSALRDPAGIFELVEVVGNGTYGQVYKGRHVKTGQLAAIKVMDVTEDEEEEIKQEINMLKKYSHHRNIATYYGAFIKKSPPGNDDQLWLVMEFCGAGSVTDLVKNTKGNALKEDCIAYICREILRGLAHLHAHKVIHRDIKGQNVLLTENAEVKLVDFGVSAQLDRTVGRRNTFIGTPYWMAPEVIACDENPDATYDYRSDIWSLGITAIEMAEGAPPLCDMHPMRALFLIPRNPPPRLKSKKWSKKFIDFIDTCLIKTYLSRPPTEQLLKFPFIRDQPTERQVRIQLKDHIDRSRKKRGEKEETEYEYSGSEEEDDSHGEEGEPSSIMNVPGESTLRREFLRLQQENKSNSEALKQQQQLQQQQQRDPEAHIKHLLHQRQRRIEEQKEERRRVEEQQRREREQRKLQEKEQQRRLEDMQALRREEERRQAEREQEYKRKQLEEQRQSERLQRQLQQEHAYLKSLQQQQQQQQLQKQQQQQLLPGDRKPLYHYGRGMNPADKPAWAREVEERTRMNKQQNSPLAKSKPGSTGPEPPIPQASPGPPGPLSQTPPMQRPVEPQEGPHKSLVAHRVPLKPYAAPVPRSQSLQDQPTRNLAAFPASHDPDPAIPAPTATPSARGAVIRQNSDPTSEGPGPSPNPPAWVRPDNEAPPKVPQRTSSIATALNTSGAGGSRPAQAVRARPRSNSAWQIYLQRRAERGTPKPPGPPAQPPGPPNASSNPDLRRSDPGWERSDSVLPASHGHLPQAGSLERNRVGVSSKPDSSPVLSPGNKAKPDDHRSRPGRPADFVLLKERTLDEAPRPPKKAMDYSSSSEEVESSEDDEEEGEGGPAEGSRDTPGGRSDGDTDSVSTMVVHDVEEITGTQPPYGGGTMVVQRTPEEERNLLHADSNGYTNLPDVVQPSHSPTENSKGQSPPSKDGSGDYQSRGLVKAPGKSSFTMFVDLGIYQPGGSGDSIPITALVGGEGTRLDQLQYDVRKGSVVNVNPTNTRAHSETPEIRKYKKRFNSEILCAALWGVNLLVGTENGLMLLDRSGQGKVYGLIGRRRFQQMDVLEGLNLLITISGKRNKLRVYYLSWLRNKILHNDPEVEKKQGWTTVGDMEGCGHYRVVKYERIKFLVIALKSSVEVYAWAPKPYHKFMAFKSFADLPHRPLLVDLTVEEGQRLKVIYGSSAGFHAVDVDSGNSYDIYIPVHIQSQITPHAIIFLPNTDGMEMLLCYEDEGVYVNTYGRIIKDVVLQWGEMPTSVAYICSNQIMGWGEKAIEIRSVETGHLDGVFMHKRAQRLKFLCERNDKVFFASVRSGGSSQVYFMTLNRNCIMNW
RAC-alpha serine/threonine-protein kinase ; AKT1 ; P31749, sequence (P31749 whole entry, one chain of several): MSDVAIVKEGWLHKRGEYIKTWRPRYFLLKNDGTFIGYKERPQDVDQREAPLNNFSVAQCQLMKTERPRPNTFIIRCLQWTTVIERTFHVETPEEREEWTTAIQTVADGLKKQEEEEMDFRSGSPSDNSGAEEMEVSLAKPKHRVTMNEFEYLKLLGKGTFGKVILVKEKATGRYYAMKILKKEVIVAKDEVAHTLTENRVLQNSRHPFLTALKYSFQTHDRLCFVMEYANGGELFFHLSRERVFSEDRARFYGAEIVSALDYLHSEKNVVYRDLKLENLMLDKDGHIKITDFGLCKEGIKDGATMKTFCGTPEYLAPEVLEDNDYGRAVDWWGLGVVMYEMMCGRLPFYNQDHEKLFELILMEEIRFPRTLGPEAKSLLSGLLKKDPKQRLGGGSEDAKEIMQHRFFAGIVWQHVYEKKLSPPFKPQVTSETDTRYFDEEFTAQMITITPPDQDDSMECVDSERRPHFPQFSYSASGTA
Serine/threonine-protein kinase/endoribonuclease IRE1 ; ERN1 ; O75460, sequence (O75460 whole entry, one chain of several): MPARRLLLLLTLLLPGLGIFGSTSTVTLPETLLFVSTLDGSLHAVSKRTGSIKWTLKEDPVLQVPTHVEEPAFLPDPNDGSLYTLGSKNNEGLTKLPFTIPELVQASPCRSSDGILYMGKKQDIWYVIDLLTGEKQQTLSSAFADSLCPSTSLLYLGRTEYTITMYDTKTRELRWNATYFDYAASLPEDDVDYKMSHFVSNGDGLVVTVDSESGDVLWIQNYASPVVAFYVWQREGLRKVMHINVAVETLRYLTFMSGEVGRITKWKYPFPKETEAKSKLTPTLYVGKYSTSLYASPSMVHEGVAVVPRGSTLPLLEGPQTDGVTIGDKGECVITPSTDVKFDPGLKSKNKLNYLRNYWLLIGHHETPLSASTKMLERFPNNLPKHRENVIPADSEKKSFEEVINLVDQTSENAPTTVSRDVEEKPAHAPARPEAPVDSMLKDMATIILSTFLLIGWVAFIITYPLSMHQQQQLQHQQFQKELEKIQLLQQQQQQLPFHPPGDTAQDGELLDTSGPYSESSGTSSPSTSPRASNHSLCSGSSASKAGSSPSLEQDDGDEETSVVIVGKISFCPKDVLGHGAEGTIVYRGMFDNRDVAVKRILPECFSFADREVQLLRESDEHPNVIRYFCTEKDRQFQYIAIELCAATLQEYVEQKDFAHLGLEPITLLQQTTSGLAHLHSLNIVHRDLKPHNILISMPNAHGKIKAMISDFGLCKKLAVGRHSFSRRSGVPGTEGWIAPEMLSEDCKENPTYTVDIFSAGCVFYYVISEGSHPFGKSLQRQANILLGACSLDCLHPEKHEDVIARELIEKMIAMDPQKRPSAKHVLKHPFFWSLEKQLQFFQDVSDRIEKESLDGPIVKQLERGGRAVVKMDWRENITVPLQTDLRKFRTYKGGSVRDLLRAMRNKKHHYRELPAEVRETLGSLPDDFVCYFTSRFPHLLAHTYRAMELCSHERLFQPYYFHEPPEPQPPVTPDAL
Mitogen-activated protein kinase kinase kinase 2 ; MAP3K2 ; Q9Y2U5, sequence (Q9Y2U5 whole entry): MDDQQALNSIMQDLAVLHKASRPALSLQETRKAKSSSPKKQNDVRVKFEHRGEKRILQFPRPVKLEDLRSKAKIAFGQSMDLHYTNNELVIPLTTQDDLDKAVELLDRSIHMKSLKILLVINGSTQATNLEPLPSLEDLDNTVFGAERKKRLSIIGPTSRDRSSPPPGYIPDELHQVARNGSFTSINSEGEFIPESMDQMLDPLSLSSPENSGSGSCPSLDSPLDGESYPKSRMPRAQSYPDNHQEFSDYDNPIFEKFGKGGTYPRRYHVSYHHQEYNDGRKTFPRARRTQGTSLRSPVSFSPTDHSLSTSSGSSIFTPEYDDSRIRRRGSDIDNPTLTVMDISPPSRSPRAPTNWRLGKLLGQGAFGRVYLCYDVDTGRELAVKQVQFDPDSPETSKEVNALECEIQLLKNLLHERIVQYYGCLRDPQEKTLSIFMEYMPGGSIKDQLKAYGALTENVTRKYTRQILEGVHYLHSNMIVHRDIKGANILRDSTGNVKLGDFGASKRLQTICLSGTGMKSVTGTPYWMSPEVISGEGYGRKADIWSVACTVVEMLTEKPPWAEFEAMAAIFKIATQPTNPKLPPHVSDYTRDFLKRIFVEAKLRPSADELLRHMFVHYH
Isoform 2 of Tyrosine-protein kinase Lyn ; LYN ; P07948-2, sequence (P07948 whole entry, canonical isoform): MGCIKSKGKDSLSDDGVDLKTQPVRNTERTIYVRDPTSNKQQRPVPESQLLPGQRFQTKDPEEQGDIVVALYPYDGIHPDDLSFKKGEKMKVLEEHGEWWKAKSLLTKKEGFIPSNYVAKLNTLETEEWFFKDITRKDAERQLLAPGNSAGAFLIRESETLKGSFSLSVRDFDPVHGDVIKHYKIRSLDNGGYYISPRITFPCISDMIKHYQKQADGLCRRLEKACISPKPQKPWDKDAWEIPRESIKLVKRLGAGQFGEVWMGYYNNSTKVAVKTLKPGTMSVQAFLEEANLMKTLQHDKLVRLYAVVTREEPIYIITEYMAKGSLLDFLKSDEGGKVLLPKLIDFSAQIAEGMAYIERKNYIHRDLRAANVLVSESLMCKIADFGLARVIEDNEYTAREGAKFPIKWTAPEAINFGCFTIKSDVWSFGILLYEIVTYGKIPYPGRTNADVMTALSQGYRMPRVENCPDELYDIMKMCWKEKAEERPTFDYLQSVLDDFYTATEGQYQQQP
EKC/KEOPS complex subunit TP53RK ; TP53RK ; Q96S44, sequence (Q96S44 whole entry, canonical isoform, one chain of several): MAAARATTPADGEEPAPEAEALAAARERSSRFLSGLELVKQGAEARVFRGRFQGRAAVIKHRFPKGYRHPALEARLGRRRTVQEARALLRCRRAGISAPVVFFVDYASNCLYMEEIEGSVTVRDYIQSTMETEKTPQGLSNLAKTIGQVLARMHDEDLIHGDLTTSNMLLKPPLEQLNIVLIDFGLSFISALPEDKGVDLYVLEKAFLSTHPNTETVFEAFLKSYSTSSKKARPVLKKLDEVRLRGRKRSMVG
Isoform 2 of Ribosomal protein S6 kinase alpha-1 ; RPS6KA1 ; Q15418-2, sequence (Q15418 whole entry, canonical isoform): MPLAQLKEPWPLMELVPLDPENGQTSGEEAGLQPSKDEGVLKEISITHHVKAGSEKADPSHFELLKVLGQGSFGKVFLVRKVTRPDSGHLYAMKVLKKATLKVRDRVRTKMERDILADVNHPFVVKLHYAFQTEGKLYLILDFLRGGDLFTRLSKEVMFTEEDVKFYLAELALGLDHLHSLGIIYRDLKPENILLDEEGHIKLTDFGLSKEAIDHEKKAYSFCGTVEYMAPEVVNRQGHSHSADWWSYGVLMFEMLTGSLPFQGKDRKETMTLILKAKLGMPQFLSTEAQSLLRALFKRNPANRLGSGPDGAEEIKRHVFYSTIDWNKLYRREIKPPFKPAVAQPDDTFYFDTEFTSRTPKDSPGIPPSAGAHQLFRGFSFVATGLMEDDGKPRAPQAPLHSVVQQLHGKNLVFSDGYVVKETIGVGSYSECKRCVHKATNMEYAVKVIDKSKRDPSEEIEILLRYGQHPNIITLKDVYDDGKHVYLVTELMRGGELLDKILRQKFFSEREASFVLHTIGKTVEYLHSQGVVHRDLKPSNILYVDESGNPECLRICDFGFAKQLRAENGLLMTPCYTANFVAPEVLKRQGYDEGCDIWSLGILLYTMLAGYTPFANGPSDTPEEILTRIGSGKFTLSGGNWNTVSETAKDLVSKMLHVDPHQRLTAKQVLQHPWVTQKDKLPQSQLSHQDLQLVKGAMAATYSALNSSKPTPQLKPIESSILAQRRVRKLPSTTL

remaining activity at 10 µM [1, 22]: 98.6%
remaining activity at 10 µM [2, 22]: 98.2%
remaining activity at 10 µM [3, 22]: 107%
remaining activity at 10 µM [4, 22]: 108%
remaining activity at 10 µM [5, 22]: 119%
remaining activity at 10 µM [6, 22]: 118%
remaining activity at 10 µM [7, 22]: 81.6%
remaining activity at 10 µM [8, 22]: 108%
remaining activity at 10 µM [9, 22]: 107%
remaining activity at 10 µM [10, 22]: 54.1%
remaining activity at 10 µM [11, 22]: 103%
remaining activity at 10 µM [12, 22]: 107%
remaining activity at 10 µM [13, 22]: 125%
remaining activity at 10 µM [14, 22]: 84.2%
remaining activity at 10 µM [15, 22]: 70.1%
remaining activity at 10 µM [16, 22]: 103%
remaining activity at 10 µM [17, 22]: 96.8%
remaining activity at 10 µM [18, 22]: 139%
remaining activity at 10 µM [19, 22]: 94.5%
remaining activity at 10 µM [20, 22]: 131%
remaining activity at 10 µM [21, 22]: 110%
Structure (SMILES): COc1cc(F)ccc1-c1cc(Nc2cc(CS(C)(=N)=O)ccn2)ncc1F (stereo not drawn) [BAY-1251152]

remaining activity at 10 µM [1, 23]: 112%
remaining activity at 10 µM [2, 23]: 114%
remaining activity at 10 µM [3, 23]: 106%
remaining activity at 10 µM [4, 23]: 121%
remaining activity at 10 µM [5, 23]: 136%
remaining activity at 10 µM [6, 23]: 122%
remaining activity at 10 µM [7, 23]: 65.2%
remaining activity at 10 µM [8, 23]: 116%
remaining activity at 10 µM [9, 23]: 102%
remaining activity at 10 µM [10, 23]: 72.9%
remaining activity at 10 µM [11, 23]: 106%
remaining activity at 10 µM [12, 23]: 101%
remaining activity at 10 µM [13, 23]: 128%
remaining activity at 10 µM [14, 23]: 70.5%
remaining activity at 10 µM [15, 23]: 109%
remaining activity at 10 µM [16, 23]: 110%
remaining activity at 10 µM [17, 23]: 104%
remaining activity at 10 µM [18, 23]: 148%
remaining activity at 10 µM [19, 23]: 93.7%
remaining activity at 10 µM [20, 23]: 133%
remaining activity at 10 µM [21, 23]: 104%
Structure (SMILES): COc1cc(F)ccc1-c1ncnc(Nc2cccc(C[S@](C)(=N)=O)c2)n1 [BAY-1143572]

Reference: doi:10.1101/2024.08.13.607785v1 (biorxiv, 2024)
